Read-outs that look alike come from different tables or passages of the source.
Columns and labels:
[1] = target: hJAK2 (Homo sapiens (Human), UniProt O60674); assay: hJAK2 LANCE TR-FRET enzymatic assay; assay type: biochemical; details: read-out: JAK2 IC50
[2] = target: TBK1 (Homo sapiens (Human), UniProt Q9UHD2); assay: TBK1 TR-FRET enzymatic assay;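 also: phosphorylation of a biotinylated Ser/Thr peptide by purified full-length recombinant TBK1, read by TR-FRET after 240 min at 25 °C, IC50 is the geometric mean of at least four runs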
[3] = target: IKKε (Homo sapiens (Human), UniProt Q14164); assay: IKKε TR-FRET enzymatic assay; assay type: biochemical; details: read-out: IKKe IC50
Sequence of IKKε (Q14164 whole entry): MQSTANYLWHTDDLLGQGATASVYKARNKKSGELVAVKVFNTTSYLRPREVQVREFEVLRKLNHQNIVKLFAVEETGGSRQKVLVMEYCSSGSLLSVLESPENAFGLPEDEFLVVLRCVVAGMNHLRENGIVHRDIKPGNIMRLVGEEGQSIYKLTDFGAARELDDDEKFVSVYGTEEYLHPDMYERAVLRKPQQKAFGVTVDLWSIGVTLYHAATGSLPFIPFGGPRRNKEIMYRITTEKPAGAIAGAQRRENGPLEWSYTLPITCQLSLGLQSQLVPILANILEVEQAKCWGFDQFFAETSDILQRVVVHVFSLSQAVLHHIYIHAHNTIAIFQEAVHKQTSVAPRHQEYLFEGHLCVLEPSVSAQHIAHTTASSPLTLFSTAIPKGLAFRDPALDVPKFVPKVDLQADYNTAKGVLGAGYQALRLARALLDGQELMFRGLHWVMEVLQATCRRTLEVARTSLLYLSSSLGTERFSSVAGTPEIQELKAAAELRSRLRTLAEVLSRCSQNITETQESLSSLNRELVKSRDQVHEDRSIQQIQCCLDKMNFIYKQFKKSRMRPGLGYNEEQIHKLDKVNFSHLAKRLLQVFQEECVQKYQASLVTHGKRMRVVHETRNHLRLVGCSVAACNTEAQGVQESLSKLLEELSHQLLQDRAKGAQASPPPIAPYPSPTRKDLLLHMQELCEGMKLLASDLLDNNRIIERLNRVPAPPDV

Sequence of hJAK2 (O60674 whole entry): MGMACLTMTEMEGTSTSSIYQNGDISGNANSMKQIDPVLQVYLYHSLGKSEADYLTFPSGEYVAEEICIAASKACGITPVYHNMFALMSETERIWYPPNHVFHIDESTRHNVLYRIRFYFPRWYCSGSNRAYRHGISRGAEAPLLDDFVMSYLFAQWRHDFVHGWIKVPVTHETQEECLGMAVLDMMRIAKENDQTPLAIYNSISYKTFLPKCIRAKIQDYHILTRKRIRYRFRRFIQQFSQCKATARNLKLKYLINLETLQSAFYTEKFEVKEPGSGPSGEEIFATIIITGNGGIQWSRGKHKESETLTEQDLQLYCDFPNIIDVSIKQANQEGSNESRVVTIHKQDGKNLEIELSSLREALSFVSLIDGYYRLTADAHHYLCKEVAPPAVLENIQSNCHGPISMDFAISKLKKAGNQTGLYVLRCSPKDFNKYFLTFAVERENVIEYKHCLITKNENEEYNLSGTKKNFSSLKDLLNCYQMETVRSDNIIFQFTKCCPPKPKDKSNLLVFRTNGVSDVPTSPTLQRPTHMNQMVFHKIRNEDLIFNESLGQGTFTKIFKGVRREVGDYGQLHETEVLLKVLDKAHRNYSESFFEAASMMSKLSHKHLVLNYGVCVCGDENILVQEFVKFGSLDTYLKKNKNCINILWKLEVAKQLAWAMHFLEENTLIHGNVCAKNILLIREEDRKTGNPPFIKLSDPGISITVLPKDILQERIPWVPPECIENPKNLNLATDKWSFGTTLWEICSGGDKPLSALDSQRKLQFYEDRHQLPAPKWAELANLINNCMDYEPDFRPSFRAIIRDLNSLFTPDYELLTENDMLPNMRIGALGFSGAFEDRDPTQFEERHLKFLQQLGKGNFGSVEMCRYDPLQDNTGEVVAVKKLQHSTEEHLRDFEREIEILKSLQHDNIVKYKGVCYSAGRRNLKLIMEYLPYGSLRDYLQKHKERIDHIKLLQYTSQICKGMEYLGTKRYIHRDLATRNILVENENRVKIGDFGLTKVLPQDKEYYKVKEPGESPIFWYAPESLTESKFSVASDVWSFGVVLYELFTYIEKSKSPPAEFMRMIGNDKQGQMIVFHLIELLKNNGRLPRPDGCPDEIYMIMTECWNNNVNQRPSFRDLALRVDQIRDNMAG
Sequence of TBK1 (Q9UHD2 whole entry): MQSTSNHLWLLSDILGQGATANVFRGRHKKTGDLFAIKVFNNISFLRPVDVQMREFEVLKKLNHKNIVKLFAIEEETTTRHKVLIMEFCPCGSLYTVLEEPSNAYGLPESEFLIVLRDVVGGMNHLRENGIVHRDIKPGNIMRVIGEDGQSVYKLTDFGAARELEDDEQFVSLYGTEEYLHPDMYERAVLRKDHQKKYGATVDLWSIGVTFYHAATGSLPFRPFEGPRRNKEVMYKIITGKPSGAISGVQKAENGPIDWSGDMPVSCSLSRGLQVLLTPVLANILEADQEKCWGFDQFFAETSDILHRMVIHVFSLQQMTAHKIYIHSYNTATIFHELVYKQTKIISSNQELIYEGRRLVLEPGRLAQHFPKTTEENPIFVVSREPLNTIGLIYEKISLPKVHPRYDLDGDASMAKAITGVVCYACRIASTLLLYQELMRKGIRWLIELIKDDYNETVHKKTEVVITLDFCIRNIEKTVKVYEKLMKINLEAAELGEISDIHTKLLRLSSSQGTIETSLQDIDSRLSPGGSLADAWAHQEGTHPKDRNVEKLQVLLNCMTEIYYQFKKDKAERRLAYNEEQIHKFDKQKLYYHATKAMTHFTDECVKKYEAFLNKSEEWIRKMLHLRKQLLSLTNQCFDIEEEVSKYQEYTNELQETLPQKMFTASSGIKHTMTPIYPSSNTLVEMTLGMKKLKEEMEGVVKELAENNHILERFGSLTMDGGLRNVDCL

N#Cc1cc(-c2ncnc(Nc3ccc(N4CCN(C5COC5)CC4)cc3)n2)ccc1O[C@H]1CCN(C(=O)c2ccn[nH]2)CC1(F)F [Example 164, (S)-2-((3,3-difluoro-1-(1H-pyrazole-5-carbonyl)piperidin-4-yl)oxy)-5-(4-((4-(4-(oxetan-3-yl)piperazin-1-yl)phenyl)amino)-1,3,5-triazin-2-yl)benzonitrile]
IC50 [1]: 155 nM | IC50 [2]: 3 nM | IC50 [3]: 1 nM

N#Cc1cc(-c2ncnc(Nc3ccc(N4CCN(C5COC5)CC4)cc3)n2)ccc1O[C@H]1CCN(C(=O)c2cnc[nH]2)CC1(F)F [Example 167, (S)-2-((3,3-difluoro-1-(1H-imidazole-5-carbonyl)piperidin-4-yl)oxy)-5-(4-((4-(4-(oxetan-3-yl)piperazin-1-yl)phenyl)amino)-1,3,5-triazin-2-yl)benzonitrile]
IC50 [1]: 104 nM | IC50 [2]: 3 nM | IC50 [3]: 1 nM

C[C@@H]1C[C@@H](Oc2ccc(-c3ncnc(Nc4ccc(N5CCN(C6COC6)CC5)cc4)n3)cc2C#N)CCN1C(=O)CO [Example 168, 2-(((2R,4S)-1-(2-hydroxyacetyl)-2-methylpiperidin-4-yl)oxy)-5-(4-((4-(4-(oxetan-3-yl)piperazin-1-yl)phenyl)amino)-1,3,5-triazin-2-yl)benzonitrile]
IC50 [1]: 877 nM | IC50 [2]: 15 nM | IC50 [3]: 61 nM

C[C@H]1C[C@@H](Oc2ccc(-c3ncnc(Nc4ccc(N5CCN(C6COC6)CC5)cc4)n3)cc2C#N)CCN1C(=O)CO [Example 169, 2-(((2S,4S)-1-(2-hydroxyacetyl)-2-methylpiperidin-4-yl)oxy)-5-(4-((4-(4-(oxetan-3-yl)piperazin-1-yl)phenyl)amino)-1,3,5-triazin-2-yl)benzonitrile]
IC50 [1]: 230 nM | IC50 [2]: 2 nM | IC50 [3]: 5 nM

CC1CN(C(=O)CO)CCC1Oc1ccc(-c2ncnc(Nc3ccc(N4CCN(C5COC5)CC4)cc3)n2)cc1C#N (stereo not drawn) [Example 170, 2-((1-(2-hydroxyacetyl)-3-methylpiperidin-4-yl)oxy)-5-(4-((4-(4-(oxetan-3-yl)piperazin-1-yl)phenyl)amino)-1,3,5-triazin-2-yl)benzonitrile]
IC50 [1]: 255 nM | IC50 [2]: 3 nM | IC50 [3]: 8 nM

CC1CC(Oc2ccc(-c3ncnc(Nc4ccc(N5CCN(C6COC6)CC5)cc4)n3)cc2C#N)CC(C)N1C(=O)CO (stereo not drawn) [Example 171, 2-((1-(2-hydroxyacetyl)-2,6-dimethylpiperidin-4-yl)oxy)-5-(4-((4-(4-(oxetan-3-yl)piperazin-1-yl)phenyl)amino)-1,3,5-triazin-2-yl)benzonitrile]
IC50 [1]: 463 nM | IC50 [2]: 2 nM | IC50 [3]: 9 nM

N#Cc1cc(-c2ncnc(Nc3ccc(N4CCN(C5COC5)CC4)cc3)n2)ccc1OC1C2CC1CN(C(=O)CO)C2 (stereo not drawn) [Example 172, 2-((3-(2-hydroxyacetyl)-3-azabicyclo[3.1.1]heptan-6-yl)oxy)-5-(4-((4-(4-(oxetan-3-yl)piperazin-1-yl)phenyl)amino)-1,3,5-triazin-2-yl)benzonitrile]
IC50 [1]: ≥ 1000 nM | IC50 [2]: 72 nM | IC50 [3]: 676 nM

N#Cc1cc(-c2ncnc(Nc3ccc(N4CCN(C5COC5)CC4)cc3)n2)ccc1OC1CC2CCC(C1)N2C(=O)CO (stereo not drawn) [Example 173, 2-((8-(2-hydroxyacetyl)-8-azabicyclo[3.2.1]octan-3-yl)oxy)-5-(4-((4-(4-(oxetan-3-yl)piperazin-1-yl)phenyl)amino)-1,3,5-triazin-2-yl)benzonitrile]
IC50 [1]: 265 nM | IC50 ([2]; TBK1 IC50): 92 nM | IC50 [3]: 218 nM

CC1(C)CN(C(=O)CO)CC(F)C1Oc1ccc(-c2ncnc(Nc3ccc(N4CCN(C5COC5)CC4)cc3)n2)cc1C#N (stereo not drawn) [Example 177, 2-((5-fluoro-1-(2-hydroxyacetyl)-3,3-dimethylpiperidin-4-yl)oxy)-5-(4-((4-(4-(oxetan-3-yl)piperazin-1-yl)phenyl)amino)-1,3,5-triazin-2-yl)benzonitrile]
IC50 [1]: 117 nM | IC50 [2]: 6 nM | IC50 [3]: 3 nM

C[C@H](O)C(=O)N1CC(F)C(Oc2ccc(-c3ncnc(Nc4ccc(N5CCN(C6COC6)CC5)cc4)n3)cc2C#N)C(C)(C)C1 (stereo partly drawn) [Example 180, 2-((5-fluoro-1-((S)-2-hydroxypropanoyl)-3,3-dimethylpiperidin-4-yl)oxy)-5-(4-((4-(4-(oxetan-3-yl)piperazin-1-yl)phenyl)amino)-1,3,5-triazin-2-yl)benzonitrile]
IC50 [1]: 317 nM | IC50 [2]: 11 nM | IC50 [3]: 17 nM

C[C@H](O)C(=O)N1CC[C@H](Oc2ccc(-c3ncnc(Nc4ccc(N5CCN(C6COC6)CC5)cc4)n3)cc2C#N)C[C@@H]1C [Example 181, 2-(((2S,4S)-1-((S)-2-hydroxypropanoyl)-2-methylpiperidin-4-yl)oxy)-5-(4-((4-(4-(oxetan-3-yl)piperazin-1-yl)phenyl)amino)-1,3,5-triazin-2-yl)benzonitrile]
IC50 [1]: 432 nM | IC50 [2]: 10 nM | IC50 [3]: 20 nM

C[C@@H](O)C(=O)N1CC[C@H](Oc2ccc(-c3ncnc(Nc4ccc(N5CCN(C6COC6)CC5)cc4)n3)cc2C#N)C[C@@H]1C [Example 182, 2-(((2S,4S)-1-((R)-2-hydroxypropanoyl)-2-methylpiperidin-4-yl)oxy)-5-(4-((4-(4-(oxetan-3-yl)piperazin-1-yl)phenyl)amino)-1,3,5-triazin-2-yl)benzonitrile]
IC50 [1]: 491 nM | IC50 [2]: 32 nM | IC50 [3]: 95 nM

C[C@H](O)C(=O)N1CC[C@H](Oc2ccc(-c3ncnc(Nc4ccc(N5CCN(C6COC6)CC5)cc4)n3)cc2C#N)C[C@H]1C [Example 183, 2-(((2R,4S)-1-((S)-2-hydroxypropanoyl)-2-methylpiperidin-4-yl)oxy)-5-(4-((4-(4-(oxetan-3-yl)piperazin-1-yl)phenyl)amino)-1,3,5-triazin-2-yl)benzonitrile]
IC50 [1]: 593 nM | IC50 [2]: 50 nM | IC50 [3]: 120 nM

C[C@@H]1C[C@@H](Oc2ccc(-c3ncnc(Nc4ccc(N5CCN(C6COC6)CC5)cc4)n3)cc2C#N)CCN1C(=O)[C@@H](C)O [Example 184, 2-(((2R,4S)-1-((R)-2-hydroxypropanoyl)-2-methylpiperidin-4-yl)oxy)-5-(4-((4-(4-(oxetan-3-yl)piperazin-1-yl)phenyl)amino)-1,3,5-triazin-2-yl)benzonitrile]
IC50 [1]: ≥ 1000 nM | IC50 [2]: 103 nM | IC50 [3]: 277 nM

C[C@H](O)C(=O)N1CC[C@@H](Oc2ccc(-c3ncnc(Nc4ccc(N5CCN(C6COC6)CC5)cc4)n3)cc2C#N)C[C@H]1C [Example 185, 2-(((2R,4R)-1-((S)-2-hydroxypropanoyl)-2-methylpiperidin-4-yl)oxy)-5-(4-((4-(4-(oxetan-3-yl)piperazin-1-yl)phenyl)amino)-1,3,5-triazin-2-yl)benzonitrile]
IC50 [1]: ≥ 1000 nM | IC50 [2]: 94 nM | IC50 [3]: 190 nM

C[C@@H]1C[C@H](Oc2ccc(-c3ncnc(Nc4ccc(N5CCN(C6COC6)CC5)cc4)n3)cc2C#N)CCN1C(=O)[C@@H](C)O [Example 186, 2-(((2R,4R)-1-((R)-2-hydroxypropanoyl)-2-methylpiperidin-4-yl)oxy)-5-(4-((4-(4-(oxetan-3-yl)piperazin-1-yl)phenyl)amino)-1,3,5-triazin-2-yl)benzonitrile]
IC50 [1]: ≥ 1000 nM | IC50 [2]: 128 nM | IC50 [3]: 312 nM

C[C@H]1C[C@@H](Oc2ccc(-c3ncnc(Nc4ccc(N5CCN(C6COC6)CC5)cc4)n3)cc2C#N)CCN1C(=O)CC#N [Example 187, 2-(((2S,4S)-1-(2-cyanoacetyl)-2-methylpiperidin-4-yl)oxy)-5-(4-((4-(4-(oxetan-3-yl)piperazin-1-yl)phenyl)amino)-1,3,5-triazin-2-yl)benzonitrile]
IC50 [1]: 183 nM | IC50 [2]: 5 nM | IC50 [3]: 13 nM

C[C@H]1C[C@@H](Oc2ccc(-c3ncnc(Nc4ccc(N5CCN(C6COC6)CC5)cc4)n3)cc2C#N)CCN1C(=O)c1cnn[nH]1 [Example 188, 2-(((2S,4S)-2-methyl-1-(1H-1,2,3-triazole-5-carbonyl)piperidin-4-yl)oxy)-5-(4-((4-(4-(oxetan-3-yl)piperazin-1-yl)phenyl)amino)-1,3,5-triazin-2-yl)benzonitrile]
IC50 [1]: 224 nM | IC50 [2]: 5 nM | IC50 [3]: 5 nM

N#Cc1cc(-c2ncnc(Nc3ccc(N4CCN(C5COC5)CC4)cc3)n2)ccc1OC1CCN(C(=O)c2ccc[nH]2)CC1 [Example 190, 2-((1-(1H-pyrrole-2-carbonyl)piperidin-4-yl)oxy)-5-(4-((4-(4-(oxetan-3-yl)piperazin-1-yl)phenyl)amino)-1,3,5-triazin-2-yl)benzonitrile]
IC50 [1]: ≥ 1000 nM | IC50 [2]: 3 nM | IC50 [3]: 15 nM

N#Cc1cc(-c2ncnc(Nc3ccc(N4CCN(C5COC5)CC4)cc3)n2)ccc1OC1CCN(C(=O)c2cc[nH]c2)CC1 [Example 191, 2-((1-(1H-pyrrole-3-carbonyl)piperidin-4-yl)oxy)-5-(4-((4-(4-(oxetan-3-yl)piperazin-1-yl)phenyl)amino)-1,3,5-triazin-2-yl)benzonitrile]
IC50 [1]: ≥ 1000 nM | IC50 [2]: 67 nM | IC50 [3]: 226 nM

C[C@H]1CN(C(=O)CO)C[C@@H]1Oc1ccc(-c2ncnc(Nc3ccc(N4CCN(C5COC5)CC4)cc3)n2)cc1C#N [Example 192, 2-(((3R,4S)-1-(2-hydroxyacetyl)-4-methylpyrrolidin-3-yl)oxy)-5-(4-((4-(4-(oxetan-3-yl)piperazin-1-yl)phenyl)amino)-1,3,5-triazin-2-yl)benzonitrile]
IC50 [1]: ≥ 1000 nM | IC50 [2]: 8 nM | IC50 [3]: 30 nM

N#Cc1cc(-c2ncnc(Nc3ccc(N4CCN(C5COC5)CC4)cc3)n2)ccc1O[C@@H]1CN(C(=O)CO)C[C@H]1F [Example 193, 2-(((3R,4R)-4-fluoro-1-(2-hydroxyacetyl)pyrrolidin-3-yl)oxy)-5-(4-((4-(4-(oxetan-3-yl)piperazin-1-yl)phenyl)amino)-1,3,5-triazin-2-yl)benzonitrile]
IC50 [1]: ≥ 1000 nM | IC50 [2]: 14 nM | IC50 [3]: 48 nM

Reference: patent publication US10040781B2, “Tank-binding kinase inhibitor compounds” (Gilead Sciences, Inc., priority 2014, dated 2018)
